Earlier results, collected in patent EP1988398B1, “Immunoassay for tramadol and its major metabolites” (Randox Laboratories Ltd., priority 2007, dated 2008).
Structures can show the parent of a compound that is named as a salt.

[1] = oral administration of a single 100 mg dose

CNC[C@@H]1CCCC[C@@]1(O)c1cccc(OC)c1 (racemic) [N-demethyltramadol, (±)-cis-2-[(methylamino)methyl]-1-(3-methoxyphenyl)cyclohexanol]
abundance of N-demethyltramadol relative to O-demethyltramadol (normal tramadol dosage levels): 1.5-3 times

COc1cccc(C2(O)CCCCC2CN(C)C)c1 (racemic) [Tramadol, (±)-cis-2-[(dimethylamino)methyl]-1-(3-methoxyphenyl)cyclohexanol hydrochloride]
plasma concentration of tramadol peaks [1]: approximately 600 ng/ml | time of peak plasma concentration [1]: 2 to 3 h | Urinary excretion of the dose as metabolites (oral, single 100 mg dose): 60% | Urinary excretion of the dose as the unchanged drug (oral, single 100 mg dose): 30%
